Test results taken from patent publication US20200262869A1, “PEPTIDE ANTIBIOTIC COMPLEXES AND METHODS OF USE THEREOF” (GENENTECH, INC., priority 2017, published 2020).
Read-outs that look alike come from different tables or passages of the source.

Key:
[1] = tested on: 49 multidrug resistant clinical isolates of E. coli and K. pneumoniae; test: MIC against CDC challenge panel of 49 multidrug resistant clinical isolates; format: cell-based; details: CDC challenge set
Description: To better assess the ability of G0775 to circumvent specific resistance mechanisms, a single MDR isolate, CDC 0106, was focused on. […] Chromosomal mutations associated with high level quinolone resistance and polymyxin resistance were also identified (FIGS. 10A-10B). Importantly, the elements encoded by CDC 0106 confer resistance to nearly all available antibiotic classes (Table 2).
Minimum Inhibitory Concentration (MIC). MICs were determined by performing two-fold serial dilutions of compound in Mueller Hinton II cation-adjusted broth to a final volume of 0.1 m1 in round-bottom 96-well assay plates (Corning Life Sciences No 3788). Each well was inoculated with 5×10^5 CFU/ml and incubated at 37° C. without agitation for 18 hours. Plates were scored by eye, and the lowest compound concentration preventing visible growth was determined to be the MIC.

[2] = tested on: A. baumannii ATCC 17978; test: Frequency of resistance (FOR); format: cell-based; details: G0775 at 8-fold the MIC; limit of detection 10^−10
Description: (§1) 20 independent colonies from each bacterial species were scraped and used to establish an overnight culture. Bacteria were concentrated by centrifugation, and approximately 3×10^9 CFUs were spread on cation adjusted Mueller Hinton agarose (MHA) plates containing G0775 at 2- to 8-times the MIC. The MHA plates were prepared from Mueller Hinton II cation adjusted broth (BBL™ 212322) and SeaKem LE Agarose (17 g/L; Lonza) as per manufactures instructions. Resistance frequency for each strain was calculated by dividing the number of colonies formed after a 48 hour incubation at 37° C. by the initial viable cell count.

[3] = tested on: E. coli ATCC 25922; test: Frequency of resistance (FOR); format: cell-based; details: G0775 at 8-fold the MIC; limit of detection 10^−10
Description: as §1

[4] = tested on: K. pneumoniae 43816; test: Frequency of resistance (FOR); format: cell-based; details: G0775 at 8-fold the MIC; limit of detection 10^−10
Description: as §1

[5] = tested on: P. aeruginosa PAO1; test: Frequency of resistance (FOR); format: cell-based; details: further 2-fold increase over 8-fold the MIC (16-fold MIC)
Description: as §1

[6] = biological target: T1, full length recombinant LepB from E. coli (Escherichia coli, UniProt P00803); test: LepB kinetic enzyme assay (fluorogenic peptide substrate); format: biochemical
T1 construct: 500 pM full length recombinant LepB from E. coli
Description: A 20 μL reaction in PBS (pH 7.4) containing 0.1% Triton X-100 was initiated by adding 500 pM full length recombinant LepB from E. coli to a 384-well polypropylene assay plate (Thermo Scientific) containing indicated concentration of G0775 and 10 uM fluorogenic peptide substrate Dabcyl-DAP-PAKAAE-Edans (SEQ ID NO: 6) (GL Biochem, Boston, Mass.). Substrate cleavage separates the Dabcyl quencher from the Edans fluorophore, resulting in 490 nm fluorescence (340 nm excitation). The reaction was read kinetically using a pherastar plate reader (BMG Labtech), and curves were fit to a 2-step irreversible binding model using Dynafit software (BioKin Ltd.) to determine Kinact/KI binding constants.

[7] = tested on: K. pneumoniae strain ATCC 43816; test: Mucin peritonitis survival study in mice; format: in vivo; details: 5 mg/kg BID subcutaneously on day of infection; out to 84 hours
Description: CD1 mice (Charles River Laboratories) were infected through intraperitoneal injection of 0.4 mL K. pneumoniae (ATCC 43816) at 3×10^5 CFU/mouse in 5% mucin (Sigma M1778). At 2 and 11 hours post infection, G0775 was given at the indicated dose subcutaneously. Ciprofloxacin (Claris Lifesciences Inc.) was dosed at 80 mg/kg subcutaneously once at 2 hour post infection. Mice were monitored for body conditioning and survival until 84 hours post infection.

Cc1nc(-c2ccc(C(C)(C)C)cc2)ncc1C(=O)NC(CCN)C(=O)N(C)C1C(=O)NC(C)C(=O)NC(C(=O)NCC#N)Cc2ccc(OCCN)c(c2)-c2cc1ccc2OCCN (stereo not shown) [G0775]
activity against panel of 49 multidrug resistant clinical isolates (MIC) [1]: maintains its potent activity against all 49 isolates | frequency of resistance (FOR) [2]: below the limit of detection | frequency of resistance (FOR) [3]: below the limit of detection | frequency of resistance (FOR) [4]: below the limit of detection | frequency of resistance (FOR) [5]: < 10^−10 | kinact/KI ([6]; full-length LepB embedded in a detergent micelle): 1.59e+06 M⁻¹ s⁻¹ | Ki ([6]; full-length LepB embedded in a detergent micelle, read-out: KI (prechemistry binding)): 0.44 nM | kinact ([6]; read-out: kinact (irreversible inactivation)): 0.0007 s⁻¹ | kinact ([6]; three independent experiments, read-out: Kinact): 0.0007 ± 0.0002 s⁻¹ | survival (animal viability) [7]: full animal viability
